From patent US12496297B1, “Compositions of autophagy modulating agents and uses thereof” (Washington University, priority 2020, dated 2025)

system: α1-antitrypsin Z variant (ATZ); test: Steady state levels of ATZ in HTO/Z cell line (immunoblot); activity of G2 analogs; assay type: cell-based, human; conditions: 48 hrs incubation, immunoblot, FIG. 8 / FIG. 14
Description: For experiments with G2 analogs, Tet-off inducible cell lines were cultured in absence of doxycycline for at least 12 days to ensure expression of […] or its variants. The cells were then sub-cultured into separate monolayers in fresh complete growth medium and incubated for 48 hours in the absence or presence of G2 analog. […] All compounds available commercially were purchased except for G2-22, which was synthesized with routine chemistry.
Cells were lysed in NP40 buffer and then separated into insoluble and soluble fractions according to a previously established technique. Samples were subjected to immunoblot analysis for AT and GAPDH. For immmunoblot analysis to detect AT or GAPDH, cells were lysed in 50 mM Tris-HCl, 150 mM NaCl, 1% NP-40, pH 8.0. Protein concentrations were determined by BCA protein assay (Pierce Biotechnology, Rockford, IL). […] The membranes were blocked in 5% milk and then incubated overnight at 4° C. with primary antibody for AT (1:1000, Diasorin), LC3 (1:2000, Sigma), p62 (1:1000, Cell signaling, Danvers, MA), ATG5 (1:1000, Cell signaling), mTOR substrate sampler (1:1000 for all antibodies, Cell signaling). Donkey anti-goat Ig (Jackson Labs, Bar Harbor, ME), goat anti-rabbit lg (1:50,000), or goat anti-mouse Ig (1:50,000) were used as secondary antibodies in TBST at RT, 1 hour. Blots were visualized with ECL or West Femto from Pierce. Membranes were re-probed with GAPDH (1:5000, Sigma) as loading control. Insoluble samples were stained with Gel Code Blue as loading control.

SMILES	effect on cellular ATZ levels
CCCCCCOc1cc(Cl)cc2[nH]c(=O)ccc12 [G2-218, 7-chloro-5-(hexyloxy)quinolin-2(1H)-one]	reduce ATZ levels in a dose-dependent manner

same assay, conditions: G2 and G2 analogs; positive activity if shown to have any activity, not quantified

SMILES	Activity
CNC(=O)c1cc(Cl)ccc1OC [G2-3, 5-chloro-2-methoxy-N-methylbenzamide]	Active
CNC(=O)c1cc(F)ccc1OC [G2-4, 5-fluoro-2-methoxy-N-methylbenzamide]	Inactive
NC(=O)c1cc(Cl)ccc1OC(F)(F)F [G2-6, 5-chloro-2-(trifluoromethoxy)benzamide]	Inactive
CN1CCNC(=O)c2cc(Cl)ccc21 [G2-11, 7-chloro-1-methyl-1,2,3,4-tetrahydro-5H-benzo[e][1,4]diazepin-5-one]	Inactive
CNC(=O)c1cc(Cl)ccc1OC1CC1 [G2-12, 5-chloro-2-cyclopropoxy-N-methylbenzamide]	Active
CNC(=O)c1cc(Cl)ccc1OC1CCN(C2CCCC2)CC1 [G2-12-2, 5-chloro-2-((1-cyclopentylpiperidin-4-yl)oxy)-N-methylbenzamide]	Inactive
CNC(=O)c1cc(Cl)ccc1OCc1ccccc1 [G2-12-3, 2-(benzyloxy)-5-chloro-N-methylbenzamide]	Inactive
COc1ccc(Cl)cc1C(=O)N(C)C [G2-13, 5-chloro-2-methoxy-N,N-dimethylbenzamide]	Active
COc1ccc(Cl)cc1C(=O)NCC(C)C [G2-14, 5-chloro-N-isobutyl-2-methoxybenzamide]	Inactive
COc1ccc(Cl)cc1C(=O)NCCCCO [G2-15, 5-chloro-N-(4-hydroxybutyl)-2-methoxybenzamide]	Inactive
CNC(=O)c1cc(Cl)ccc1Oc1ccc(Cl)cc1 [G2-16, 5-chloro-2-(4-chlorophenoxy)-N-methylbenzamide]	Inactive
CNC(=O)c1cc(Cl)ccc1OCCC(C)C [G2-17, 5-chloro-2-(isopentyloxy)-N-methylbenzamide]	Inactive
Cn1ccc2c(Cl)cccc2c1=O [G2-22, 5-chloro-2-methylisoquinolin-1(2H)-one]	Active
Cn1ccc2ccc(Cl)cc2c1=O [G2-23, 7-chloro-2-methylisoquinolin-1(2H)-one]	Inactive
Cn1ccc2cccc(Cl)c2c1=O [G2-24, 8-chloro-2-methylisoquinolin-1(2H)-one]	Inactive
O=c1[nH]ccc2cc(Cl)ccc12 [G2-25, 6-chloroisoquinolin-1(2H)-one]	Active
Cn1cnc2cc(Cl)ccc2c1=O [G2-27, 7-chloro-3-methylquinazolin-4(3H)-one]	Inactive
CN1Cc2cc(Cl)ccc2C1=O [G2-28, 5-chloro-2-methylisoindolin-1-one]	Active
Cn1ccc2cc(S(C)(=O)=O)ccc2c1=O [G2-29, 2-methyl-6-(methylsulfonyl)isoquinolin-1(2H)-one]	Active
COc1ccc2c(=O)n(C)ccc2c1 [G2-30, 6-methoxy-2-methylisoquinolin-1(2H)-one]	Active

SMILES	Activity
Cn1ccc2cc(C#N)ccc2c1=O [G2-31, 2-methyl-1-oxo-1,2-dihydroisoquinoline-6-carbonitrile]	Inactive
Cn1ccc2ccccc2c1=O [G2-34, 2-methylisoquinolin-1(2H)-one]	Inactive
Cn1c(=O)ccc2cc(Cl)ccc21 [G2-37, 6-chloro-1-methylquinolin-2(1H)-one]	Active
Cc1cn(C)c(=O)c2ccc(Cl)cc12 [G2-38, 6-chloro-2,4-dimethylisoquinolin-1(2H)-one]	Inactive
Cn1ccc2cc(-c3ccccn3)ccc2c1=O [G2-39, 2-methyl-6-(pyridin-2-yl)isoquinolin-1(2H)-one]	Inactive
CNC(=O)c1cccc(Cl)c1OC [G2-40, 3-chloro-2-methoxy-N-methylbenzamide]	Inactive
Cn1ccc2cc(-c3ccccc3)ccc2c1=O [G2-41, 2-methyl-6-phenylisoquinolin-1(2H)-one]	Active
Cn1ccc2cc(-c3ccncc3)ccc2c1=O [G2-42, 2-methyl-6-(pyridin-4-yl)isoquinolin-1(2H)-one]	Active
Cn1ccc2cc(-c3cccnc3)ccc2c1=O [G2-43, 2-methyl-6-(pyridin-3-yl)isoquinolin-1(2H)-one]	Inactive
CN(C)c1ccc2c(=O)n(C)ccc2c1 [G2-44, 6-(dimethylamino)-2-methylisoquinolin-1(2H)-one]	Inactive
Cn1ccc2cc(N3CCCC3)ccc2c1=O [G2-45, 2-methyl-6-(pyrrolidin-1-yl)isoquinolin-1(2H)-one]	Active
Cn1ccc2cc(N3CC4(COC4)C3)ccc2c1=O [G2-46, 2-methyl-6-(2-oxa-6-azaspiro[3.3]heptan-6-yl)isoquinolin-1(2H)-one]	Inactive
Cn1ccc2cc(Nc3ccccc3)ccc2c1=O [G2-47, 2-methyl-6-(phenylamino)isoquinolin-1(2H)-one]	Inactive
CN(c1ccccc1)c1ccc2c(=O)n(C)ccc2c1 [G2-48, 2-methyl-6-(methyl(phenyl)amino)isoquinolin-1(2H)-one]	Active
Cn1ccc2cc(Nc3ccccn3)ccc2c1=O [G2-49, 2-methyl-6-(pyridin-2-ylamino)isoquinolin-1(2H)-one]	Inactive
Cn1ncc2cc(Cl)ccc2c1=O [G2-51, 6-chloro-2-methylphthalazin-1(2H)-one]	Active
CCn1ccc2cc(Cl)ccc2c1=O [G2-52, 6-chloro-2-ethylisoquinolin-1(2H)-one]	Inactive
O=c1c2ccc(Cl)cc2ccn1-c1ccccc1 [G2-53, 6-chloro-2-phenylisoquinolin-1(2H)-one]	Inactive
Cn1c(=O)ccc2ccc(Cl)cc21 [G2-54, 7-chloro-1-methylquinolin-2(1H)-one]	Active (Highly Active)
CNC(=O)c1ccc(Cl)cc1OC [G2-55, 4-chloro-2-methoxy-N-methylbenzamide]	Inactive

SMILES	Activity
Cn1c(=O)ccc2cc(Cl)ccc21 [G2-58, 6-chloro-1-methylquinolin-2(1H)-one]	Inactive
Cn1ccc2cc(-c3ncccn3)ccc2c1=O [G2-59, 2-methyl-6-(pyrimidin-2-yl)isoquinolin-1(2H)-one]	Inactive
CCCCc1ccc2c(=O)n(C)ccc2c1 [G2-60, 6-butyl-2-methylisoquinolin-1(2H)-one]	Inactive
Cn1ccc2cc(N3CCCCC3)ccc2c1=O [G2-61, 2-methyl-6-(piperidin-1-yl)isoquinolin-1(2H)-one]	Inactive
Cn1ccc2cc(N3CCC(c4ccccc4)CC3)ccc2c1=O [G2-62, 2-methyl-6-(4-phenylpiperidin-1-yl)isoquinolin-1(2H)-one]	Inactive
Cn1ccc2cc(-c3ccc(Cl)cc3)ccc2c1=O [G2-63, 6-(4-chlorophenyl)-2-methylisoquinolin-1(2H)-one]	Inactive
Cn1ccc2cc(-c3ccn[nH]3)ccc2c1=O [G2-65, 2-methyl-6-(1H-pyrazol-5-yl)isoquinolin-1(2H)-one]	Inactive
Cn1ccc2cc(S(N)(=O)=O)ccc2c1=O [G2-67, 2-methyl-1-oxo-1,2-dihydroisoquinoline-6-sulfonamide]	Inactive
O=c1ccc2ccc(Cl)cc2[nH]1 [G2-69, 7-chloroquinolin-2(1H)-one]	Active (Most Highly Active)
O=c1ncc2cc(Cl)ccc2[nH]1 [G2-71, 6-chloroquinazolin-2(1H)-one]	Inactive
Cn1c(=O)ccc2ccc(-c3cccnc3)cc21 [G2-83, 1-methyl-7-(pyridin-3-yl)quinolin-2(1H)-one]	Inactive
Cn1c(=O)ccc2ccc(Nc3ccccn3)cc21 [G2-91, 1-methyl-7-(pyridin-2-ylamino)quinolin-2(1H)-one]	Inactive
O=c1ccc2ccc(F)cc2[nH]1 [G2-124, 7-fluoroquinolin-2(1H)-one]	Active
O=c1ccc2ccc(C3CC3)cc2[nH]1 [G2-156, 7-cyclopropylquinolin-2(1H)-one]	Active
O=c1ccc2c(N3CCCCC3)cc(Cl)cc2[nH]1 [G2-195, 7-chloro-5-(piperidin-1-yl)quinolin-2(1H)-one]	Active
O=c1ccc2c(-c3ccccc3)cc(Cl)cc2[nH]1 [G2-196, 7-chloro-5-phenylquinolin-2(1H)-one]	Active
O=c1ccc2c(-c3ncccn3)cc(Cl)cc2[nH]1 [G2-197, 7-chloro-5-(pyrimidin-2-yl)quinolin-2(1H)-one]	Active
CCCCCCOc1cc(Cl)cc2[nH]c(=O)ccc12 [G2-218, 7-chloro-5-(hexyloxy)quinolin-2(1H)-one]	Active

same assay, conditions: TABLE 1; assay not given

SMILES	IC50 [nM]
O=c1ccc2ccc(Cl)cc2[nH]1 [G2-69, 7-chloroquinolin-2(1H)-one]	100 to 1000
O=c1ccc2ccc(F)cc2[nH]1 [G2-124, 7-fluoroquinolin-2(1H)-one]	1000 to 10000
O=c1ccc2ccc(C3CC3)cc2[nH]1 [G2-156, 7-cyclopropylquinolin-2(1H)-one]	1000 to 10000
O=c1ccc2c(N3CCCCC3)cc(Cl)cc2[nH]1 [G2-195, 7-chloro-5-(piperidin-1-yl)quinolin-2(1H)-one]	1000 to 10000
O=c1ccc2c(-c3ccccc3)cc(Cl)cc2[nH]1 [G2-196, 7-chloro-5-phenylquinolin-2(1H)-one]	1000 to 10000
O=c1ccc2c(-c3ncccn3)cc(Cl)cc2[nH]1 [G2-197, 7-chloro-5-(pyrimidin-2-yl)quinolin-2(1H)-one]	1000 to 10000
CCCCCCOc1cc(Cl)cc2[nH]c(=O)ccc12 [G2-218, 7-chloro-5-(hexyloxy)quinolin-2(1H)-one]	100 to 1000
